10 compounds from ChEMBL document CHEMBL3991601, “The target landscape of clinical kinase drugs” (Science, 2017) can be followed below.

Activity calls are given as the source filed them. Rule as the data show it, for most assays here: actives have a measured Kd and inactives only a lower limit. A value given as a limit tells only on which side of the number the result lay.

Broadly, the Kd is the concentration at which binding is half-saturated.

Experiment [1] concerns the target Cyclin-dependent kinase 13 (Homo sapiens, UniProt Q14004).
The target of experiment [2] is Mitogen-activated protein kinase kinase kinase 1 (Homo sapiens, UniProt Q13233).
Sequence of Mitogen-activated protein kinase kinase kinase 1 (Q13233 whole entry): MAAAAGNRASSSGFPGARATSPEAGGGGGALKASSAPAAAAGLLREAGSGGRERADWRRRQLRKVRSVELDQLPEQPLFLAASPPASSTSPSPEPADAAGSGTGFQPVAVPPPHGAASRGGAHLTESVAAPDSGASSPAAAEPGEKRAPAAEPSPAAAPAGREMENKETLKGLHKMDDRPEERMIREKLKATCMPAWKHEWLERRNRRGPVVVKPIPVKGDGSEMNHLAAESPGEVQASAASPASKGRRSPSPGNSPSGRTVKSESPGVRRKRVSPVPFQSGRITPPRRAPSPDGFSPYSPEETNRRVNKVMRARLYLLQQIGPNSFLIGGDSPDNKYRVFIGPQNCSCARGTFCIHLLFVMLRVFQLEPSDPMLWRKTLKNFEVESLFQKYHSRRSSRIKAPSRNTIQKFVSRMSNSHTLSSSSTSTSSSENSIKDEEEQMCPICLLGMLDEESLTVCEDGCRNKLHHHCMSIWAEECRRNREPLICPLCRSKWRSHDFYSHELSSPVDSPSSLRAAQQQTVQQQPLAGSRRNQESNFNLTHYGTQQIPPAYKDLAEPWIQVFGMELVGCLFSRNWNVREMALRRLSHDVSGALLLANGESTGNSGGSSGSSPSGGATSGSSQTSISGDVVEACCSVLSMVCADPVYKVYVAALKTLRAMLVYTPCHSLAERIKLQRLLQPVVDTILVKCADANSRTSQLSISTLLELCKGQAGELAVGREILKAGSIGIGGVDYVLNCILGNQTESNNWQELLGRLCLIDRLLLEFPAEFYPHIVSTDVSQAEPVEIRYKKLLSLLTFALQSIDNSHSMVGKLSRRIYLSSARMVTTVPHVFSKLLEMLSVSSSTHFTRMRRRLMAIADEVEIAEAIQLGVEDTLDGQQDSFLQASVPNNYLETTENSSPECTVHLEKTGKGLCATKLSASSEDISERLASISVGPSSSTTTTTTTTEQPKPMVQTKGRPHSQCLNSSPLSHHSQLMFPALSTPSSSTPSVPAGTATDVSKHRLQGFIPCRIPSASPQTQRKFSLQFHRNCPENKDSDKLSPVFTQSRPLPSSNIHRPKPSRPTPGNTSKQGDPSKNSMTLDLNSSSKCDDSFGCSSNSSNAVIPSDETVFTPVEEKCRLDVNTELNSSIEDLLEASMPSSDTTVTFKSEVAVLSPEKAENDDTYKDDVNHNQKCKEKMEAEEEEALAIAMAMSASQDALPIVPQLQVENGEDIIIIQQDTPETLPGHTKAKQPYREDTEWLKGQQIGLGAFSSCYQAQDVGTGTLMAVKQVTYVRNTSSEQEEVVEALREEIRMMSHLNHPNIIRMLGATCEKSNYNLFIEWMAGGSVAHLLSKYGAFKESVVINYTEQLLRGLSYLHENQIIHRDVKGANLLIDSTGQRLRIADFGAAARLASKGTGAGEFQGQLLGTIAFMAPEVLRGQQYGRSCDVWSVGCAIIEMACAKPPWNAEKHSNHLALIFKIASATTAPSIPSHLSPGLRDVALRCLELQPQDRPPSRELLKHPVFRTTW
The target of experiment [3] is Deoxycytidine kinase (Homo sapiens, UniProt P27707).
Sequence of Deoxycytidine kinase (P27707 whole entry): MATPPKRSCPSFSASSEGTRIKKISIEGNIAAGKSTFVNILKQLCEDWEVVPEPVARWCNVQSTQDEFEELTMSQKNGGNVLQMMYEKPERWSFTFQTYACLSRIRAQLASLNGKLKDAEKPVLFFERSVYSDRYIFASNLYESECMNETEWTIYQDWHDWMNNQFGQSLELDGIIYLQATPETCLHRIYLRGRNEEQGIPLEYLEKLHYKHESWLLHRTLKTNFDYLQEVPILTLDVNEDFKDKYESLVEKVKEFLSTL
Experiment [4] concerns the target T1, Calcium/calmodulin-dependent protein kinase type IV (Homo sapiens, UniProt Q16566).
T1 sequence (Q16566 whole entry): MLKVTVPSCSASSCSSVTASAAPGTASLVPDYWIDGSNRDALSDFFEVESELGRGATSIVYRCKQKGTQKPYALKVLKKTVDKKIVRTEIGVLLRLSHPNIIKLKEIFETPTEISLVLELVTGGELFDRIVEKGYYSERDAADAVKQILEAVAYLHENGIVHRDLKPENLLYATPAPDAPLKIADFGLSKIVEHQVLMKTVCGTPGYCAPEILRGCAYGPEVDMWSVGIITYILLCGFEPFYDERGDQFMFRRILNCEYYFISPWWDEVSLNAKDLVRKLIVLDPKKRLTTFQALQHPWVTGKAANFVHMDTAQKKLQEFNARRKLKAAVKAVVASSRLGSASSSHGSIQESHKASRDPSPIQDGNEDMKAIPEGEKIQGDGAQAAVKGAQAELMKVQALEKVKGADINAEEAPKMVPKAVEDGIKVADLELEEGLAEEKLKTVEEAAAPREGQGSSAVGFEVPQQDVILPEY

For experiment [5], the target named is T2, Ras-related protein Rab-27A (Homo sapiens, UniProt P51159).
T2 sequence (P51159 whole entry): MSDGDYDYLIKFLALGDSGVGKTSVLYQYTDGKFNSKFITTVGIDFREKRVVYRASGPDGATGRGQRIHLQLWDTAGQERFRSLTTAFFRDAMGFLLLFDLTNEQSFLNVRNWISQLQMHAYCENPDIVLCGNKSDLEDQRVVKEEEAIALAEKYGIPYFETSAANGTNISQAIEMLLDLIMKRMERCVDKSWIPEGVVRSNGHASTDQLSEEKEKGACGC

The target in experiment [6] is Ephrin type-A receptor 2 (Homo sapiens, UniProt P29317).
Sequence of Ephrin type-A receptor 2 (P29317 whole entry): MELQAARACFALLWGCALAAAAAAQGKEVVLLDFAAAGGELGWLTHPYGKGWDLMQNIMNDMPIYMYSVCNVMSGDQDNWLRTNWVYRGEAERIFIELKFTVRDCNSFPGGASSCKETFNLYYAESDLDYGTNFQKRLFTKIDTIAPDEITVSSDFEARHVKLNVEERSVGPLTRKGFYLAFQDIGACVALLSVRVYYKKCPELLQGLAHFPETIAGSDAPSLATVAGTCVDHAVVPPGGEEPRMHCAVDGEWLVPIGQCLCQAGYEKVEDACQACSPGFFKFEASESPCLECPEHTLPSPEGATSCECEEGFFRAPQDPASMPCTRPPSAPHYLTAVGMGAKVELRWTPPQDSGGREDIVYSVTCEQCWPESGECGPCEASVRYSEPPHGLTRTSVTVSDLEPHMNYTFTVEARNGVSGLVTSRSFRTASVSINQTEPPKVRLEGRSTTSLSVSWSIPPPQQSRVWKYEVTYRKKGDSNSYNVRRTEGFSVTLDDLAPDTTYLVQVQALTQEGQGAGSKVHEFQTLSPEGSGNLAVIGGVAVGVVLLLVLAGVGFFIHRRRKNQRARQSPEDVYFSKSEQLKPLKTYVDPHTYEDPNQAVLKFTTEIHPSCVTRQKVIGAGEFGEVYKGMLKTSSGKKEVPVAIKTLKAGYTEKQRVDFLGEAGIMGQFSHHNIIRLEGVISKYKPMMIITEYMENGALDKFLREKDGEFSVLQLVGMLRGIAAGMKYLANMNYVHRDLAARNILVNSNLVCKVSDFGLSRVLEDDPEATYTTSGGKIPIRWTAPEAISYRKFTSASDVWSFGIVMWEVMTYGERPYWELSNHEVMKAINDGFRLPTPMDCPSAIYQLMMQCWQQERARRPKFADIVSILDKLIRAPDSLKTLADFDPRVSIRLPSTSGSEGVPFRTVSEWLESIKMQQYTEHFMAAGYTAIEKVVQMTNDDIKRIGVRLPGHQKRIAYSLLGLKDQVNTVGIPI
The target of experiment [7] is T3, Acyl-CoA dehydrogenase family member 10 (Homo sapiens, UniProt Q6JQN1).
T3 sequence (Q6JQN1 whole entry): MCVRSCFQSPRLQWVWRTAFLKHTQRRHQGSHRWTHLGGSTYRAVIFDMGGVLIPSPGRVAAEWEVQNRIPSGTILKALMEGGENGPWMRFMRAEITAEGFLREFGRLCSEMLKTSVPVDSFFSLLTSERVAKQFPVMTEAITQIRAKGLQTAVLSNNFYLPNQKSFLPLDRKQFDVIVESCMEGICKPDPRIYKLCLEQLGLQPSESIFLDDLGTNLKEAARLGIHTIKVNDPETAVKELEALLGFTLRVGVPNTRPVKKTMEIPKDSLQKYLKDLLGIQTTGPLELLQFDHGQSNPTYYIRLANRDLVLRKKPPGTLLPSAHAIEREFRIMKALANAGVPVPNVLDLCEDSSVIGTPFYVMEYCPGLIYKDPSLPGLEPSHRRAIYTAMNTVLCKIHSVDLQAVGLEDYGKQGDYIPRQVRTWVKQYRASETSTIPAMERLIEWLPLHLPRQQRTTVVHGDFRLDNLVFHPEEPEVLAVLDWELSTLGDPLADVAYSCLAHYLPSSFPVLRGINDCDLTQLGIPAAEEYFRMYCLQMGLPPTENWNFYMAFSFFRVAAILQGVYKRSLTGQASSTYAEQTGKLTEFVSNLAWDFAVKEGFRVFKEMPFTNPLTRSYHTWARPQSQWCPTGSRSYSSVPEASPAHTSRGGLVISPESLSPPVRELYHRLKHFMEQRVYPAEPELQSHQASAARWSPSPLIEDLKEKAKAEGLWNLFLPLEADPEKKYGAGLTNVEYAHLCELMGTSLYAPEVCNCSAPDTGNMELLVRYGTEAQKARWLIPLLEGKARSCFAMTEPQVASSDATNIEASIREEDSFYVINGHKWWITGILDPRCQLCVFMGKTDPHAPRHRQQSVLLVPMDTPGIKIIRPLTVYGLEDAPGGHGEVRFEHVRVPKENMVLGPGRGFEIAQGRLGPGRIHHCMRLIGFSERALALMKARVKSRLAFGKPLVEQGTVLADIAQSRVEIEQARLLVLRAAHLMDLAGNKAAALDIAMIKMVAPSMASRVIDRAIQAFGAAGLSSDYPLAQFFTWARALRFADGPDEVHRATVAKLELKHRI

The target in experiment [8] is T4, Serine/threonine-protein kinase D3 (Homo sapiens, UniProt O94806).
T4 sequence (O94806 whole entry): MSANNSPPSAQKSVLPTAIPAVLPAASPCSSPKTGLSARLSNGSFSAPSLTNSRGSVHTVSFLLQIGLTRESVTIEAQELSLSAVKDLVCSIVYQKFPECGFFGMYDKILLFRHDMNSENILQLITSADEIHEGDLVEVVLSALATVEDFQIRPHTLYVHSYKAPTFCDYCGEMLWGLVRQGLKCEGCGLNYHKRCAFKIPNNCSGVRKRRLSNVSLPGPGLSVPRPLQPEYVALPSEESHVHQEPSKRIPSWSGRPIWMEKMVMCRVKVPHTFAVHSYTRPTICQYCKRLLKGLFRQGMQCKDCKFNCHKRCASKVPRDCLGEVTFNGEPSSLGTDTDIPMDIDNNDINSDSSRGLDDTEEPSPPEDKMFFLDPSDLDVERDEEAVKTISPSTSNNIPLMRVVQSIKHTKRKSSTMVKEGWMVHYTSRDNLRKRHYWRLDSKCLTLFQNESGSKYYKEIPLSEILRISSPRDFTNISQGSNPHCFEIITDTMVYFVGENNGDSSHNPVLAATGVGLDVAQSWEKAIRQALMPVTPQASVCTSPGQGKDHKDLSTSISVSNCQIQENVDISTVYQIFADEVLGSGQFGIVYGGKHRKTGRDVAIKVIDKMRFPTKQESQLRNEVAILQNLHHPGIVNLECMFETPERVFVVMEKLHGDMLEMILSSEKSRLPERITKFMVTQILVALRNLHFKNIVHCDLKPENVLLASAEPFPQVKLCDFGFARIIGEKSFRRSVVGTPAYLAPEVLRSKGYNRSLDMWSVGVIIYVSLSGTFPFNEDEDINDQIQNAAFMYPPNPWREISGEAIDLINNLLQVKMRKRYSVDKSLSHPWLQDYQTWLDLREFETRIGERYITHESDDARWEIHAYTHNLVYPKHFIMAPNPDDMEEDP

In experiment [9] the target is Insulin-like growth factor 1 receptor (Homo sapiens, UniProt P08069).
In experiment [10] the target is MAP kinase-activated protein kinase 2 (Homo sapiens, UniProt P49137).
Sequence of MAP kinase-activated protein kinase 2 (P49137 whole entry): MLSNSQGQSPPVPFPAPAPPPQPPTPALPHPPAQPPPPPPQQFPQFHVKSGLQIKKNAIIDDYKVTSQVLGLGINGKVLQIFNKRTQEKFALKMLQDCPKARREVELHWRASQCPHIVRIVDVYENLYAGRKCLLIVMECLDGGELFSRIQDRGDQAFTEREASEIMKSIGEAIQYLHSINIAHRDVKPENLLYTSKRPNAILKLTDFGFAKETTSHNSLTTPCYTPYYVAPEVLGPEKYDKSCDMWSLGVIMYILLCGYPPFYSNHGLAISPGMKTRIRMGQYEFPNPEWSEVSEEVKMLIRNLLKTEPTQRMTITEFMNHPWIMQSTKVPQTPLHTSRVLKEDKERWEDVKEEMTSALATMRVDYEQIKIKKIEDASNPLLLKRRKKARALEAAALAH
Also: in the data inactive means no Kd found up to 30 µM.

Sequence of Cyclin-dependent kinase 13 (Q14004 whole entry): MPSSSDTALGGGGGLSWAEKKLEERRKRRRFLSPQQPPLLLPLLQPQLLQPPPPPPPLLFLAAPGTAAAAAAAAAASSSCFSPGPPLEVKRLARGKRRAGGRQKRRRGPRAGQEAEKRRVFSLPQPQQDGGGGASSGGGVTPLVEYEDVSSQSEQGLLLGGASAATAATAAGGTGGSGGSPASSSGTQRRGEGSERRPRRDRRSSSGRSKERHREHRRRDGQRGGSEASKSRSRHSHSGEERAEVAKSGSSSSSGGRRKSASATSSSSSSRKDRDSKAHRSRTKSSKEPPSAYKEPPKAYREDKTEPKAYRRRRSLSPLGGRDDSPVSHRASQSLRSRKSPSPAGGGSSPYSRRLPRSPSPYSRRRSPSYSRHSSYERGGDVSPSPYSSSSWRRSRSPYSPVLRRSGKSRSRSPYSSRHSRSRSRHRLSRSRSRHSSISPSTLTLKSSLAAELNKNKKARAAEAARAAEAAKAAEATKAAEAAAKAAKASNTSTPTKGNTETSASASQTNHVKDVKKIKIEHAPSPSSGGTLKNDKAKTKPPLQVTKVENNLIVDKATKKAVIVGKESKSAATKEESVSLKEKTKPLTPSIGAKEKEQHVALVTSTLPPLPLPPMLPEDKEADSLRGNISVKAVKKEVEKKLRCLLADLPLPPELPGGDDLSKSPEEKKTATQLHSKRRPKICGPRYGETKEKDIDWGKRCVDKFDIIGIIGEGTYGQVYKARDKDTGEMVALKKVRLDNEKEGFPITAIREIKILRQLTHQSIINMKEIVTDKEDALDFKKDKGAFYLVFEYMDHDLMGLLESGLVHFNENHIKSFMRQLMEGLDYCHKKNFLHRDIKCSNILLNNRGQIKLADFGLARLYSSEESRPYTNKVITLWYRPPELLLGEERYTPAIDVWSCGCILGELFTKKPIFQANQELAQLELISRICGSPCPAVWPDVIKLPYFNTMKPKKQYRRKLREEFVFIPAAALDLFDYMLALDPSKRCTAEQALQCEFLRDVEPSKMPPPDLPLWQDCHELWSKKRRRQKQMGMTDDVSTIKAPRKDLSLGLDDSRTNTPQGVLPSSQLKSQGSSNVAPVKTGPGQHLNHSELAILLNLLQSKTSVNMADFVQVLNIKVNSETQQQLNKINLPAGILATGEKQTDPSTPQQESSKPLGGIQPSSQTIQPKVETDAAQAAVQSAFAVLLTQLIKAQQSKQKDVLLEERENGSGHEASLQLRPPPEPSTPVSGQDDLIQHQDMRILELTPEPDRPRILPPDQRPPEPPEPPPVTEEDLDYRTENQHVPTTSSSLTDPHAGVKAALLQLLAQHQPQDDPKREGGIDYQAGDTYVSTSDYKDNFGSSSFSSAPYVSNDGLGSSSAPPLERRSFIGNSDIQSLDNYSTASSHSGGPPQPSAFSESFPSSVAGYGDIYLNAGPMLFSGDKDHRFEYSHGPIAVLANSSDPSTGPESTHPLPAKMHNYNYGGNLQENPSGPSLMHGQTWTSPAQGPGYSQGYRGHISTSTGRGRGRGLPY

`COc1ccc(S(=O)(=O)N(C(C)=O)c2ccccc2/C=C/c2cc[n+]([O-])cc2)cc1` [HMN-214]: the Kd in experiment [1], in experiment [2], in [3], in experiment [4], in experiment [5] and in experiment [6] was > 30 µM (inactive) each time. The Kd in [7], in experiment [8], in experiment [9] and in experiment [10] was > 30 µM (inactive) throughout.

As to `O=C(Nc1cc(C(F)(F)F)cc(C(F)(F)F)c1)c1cc(Cl)ccc1O` [IMD-0354], the Kd in experiment [1], in experiment [2], in experiment [3], in experiment [4], in experiment [5] and in experiment [6] was > 30 µM (inactive) throughout. The Kd in experiment [7], in experiment [8], in [9] and in [10] was > 30 µM (inactive) throughout.

Take `CNC(=O)c1cccc2cc(Oc3ccnc4cc(OCC5(N)CC5)c(OC)cc34)ccc12` [LUCITANIB]: the Kd in experiment [1], in [2], in [3], in experiment [4], in experiment [5] and in [6] was > 30 µM (inactive) in each case. For the same compound, the Kd in experiment [7], in experiment [8], in experiment [9] and in [10] was > 30 µM (inactive) each time.

With `CNC(=O)c1nn(C)c2c1C(C)(C)Cc1cnc(Nc3ccc(N4CCN(C)CC4)cc3)nc1-2` [MILCICLIB], the Kd in experiment [1] is > 30 µM (inactive); in experiment [2] it was > 30 µM (inactive); in [3], > 30 µM (inactive); in experiment [4] it was > 30 µM (inactive); in experiment [5], > 30 µM (inactive); in experiment [6], 0.661 µM (active). Besides, the Kd in experiment [7] is > 30 µM (inactive); in experiment [8], 0.135 µM (active); in experiment [9], > 30 µM (inactive); in [10], > 30 µM (inactive).

Take `NC1(c2ccc(-c3nc4ccn5c(=O)[nH]nc5c4cc3-c3ccccc3)cc2)CCC1` [MK-2206]: the Kd in [1], in [2], in experiment [3], in [4], in experiment [5] and in experiment [6] was > 30 µM (inactive) each time. Also, the Kd in experiment [7], in [8], in [9] and in experiment [10] was > 30 µM (inactive) in each case.

Take `Cn1cc(-c2cnc3ccc4ccc(CS(=O)(=O)NCc5ccccn5)cc4c(=O)c3c2)cn1` [MK-8033]: the Kd in experiment [1], in experiment [2], in [3], in experiment [4], in experiment [5] and in [6] was > 30 µM (inactive) throughout. Also, the Kd in experiment [7], in [8], in experiment [9] and in [10] was > 30 µM (inactive) each time.

In the case of `FC(F)(F)c1ccc(/C=C/c2nc(COc3ccc(CCCCn4ccnn4)cc3)co2)cc1` [MUBRITINIB], the Kd in experiment [1], in experiment [2], in [3], in experiment [4], in experiment [5] and in experiment [6] was > 30 µM (inactive) throughout. The Kd in experiment [7], in experiment [8], in experiment [9] and in [10] was > 30 µM (inactive) each time.

For the compound `CCOc1cc2ncc(C#N)c(Nc3ccc(F)c(Cl)c3)c2cc1NC(=O)/C=C/CN(C)C` [PELITINIB], the Kd was > 30 µM (inactive) in experiment [1]; 0.097 µM (active) in experiment [2]; > 30 µM (inactive) in experiment [3]; > 30 µM (inactive) in experiment [4]; > 30 µM (inactive) in experiment [5]; > 30 µM (inactive) in experiment [6]. Further, the Kd in experiment [7], in experiment [8], in experiment [9] and in [10] was > 30 µM (inactive) each time.

Regarding `CCCCCCCCCCCCCCCCCCOP(=O)([O-])OC1CC[N+](C)(C)CC1` [PERIFOSINE], the Kd in experiment [1], in [2], in [3], in experiment [4], in experiment [5] and in experiment [6] was > 30 µM (inactive) throughout. The Kd in experiment [7], in experiment [8], in experiment [9] and in [10] was > 30 µM (inactive) throughout.

For `Cc1nc(Nc2n[nH]c3c2CN(C(=O)N[C@H](CN(C)C)c2ccccc2)C3(C)C)c2sccc2n1` [PF-03758309], the Kd in [1] is > 30 µM (inactive); in experiment [2] it was > 30 µM (inactive); in experiment [3], > 30 µM (inactive); in experiment [4], 0.408 µM (active); in [5], > 30 µM (inactive); in experiment [6], > 30 µM (inactive). In addition, the Kd was > 30 µM (inactive) in experiment [7], 0.268 µM (active) in experiment [8], > 30 µM (inactive) in experiment [9] and > 30 µM (inactive) in experiment [10].
